The results in this text go back to patent publication US8518931B2, “Compounds and compositions as kinase inhibitors” (IRM LLC, priority 2008, dated 2013).

The test addresses T1, NPM-ALK (Homo sapiens, UniProt Q9UM73).
T1 construct: nucleophosmin (NPM, NPM1; human P06748) fusion partner; expressed in transfected cells; host or cells: murine BaF3 cells (DSMZ), transfected with pCIneo (Promega) coding for NPM-ALK and selected with G418; the other entry of the earlier key: Npm1 (Q61937, Nucleophosmin)
In words: NPM-ALK BaF3 assay (growth inhibition of BaF3-NPM-ALK cells). The following applies: human NPM-ALK overexpressing murine BaF3 cells. The format is cell-based. The text has this: The expression of NPM-ALK may be achieved by transfecting the BaF3 cell line with an expression vector pClneo™ (Promega Corp., Madison Wis., USA) coding for NPM-ALK and subsequent selection of G418 resistant cells. Non-transfected BaF3 cells depend on IL-3 for cell survival. In contrast, NPM-ALK expressing BaF3 cells (named BaF3-NPM-ALK hereinafter) can proliferate in the absence of IL-3 because they obtain proliferative signal through NPM-ALK kinase. Putative inhibitors of the NPM-ALK kinase therefore abolish the growth signal and may result in antiproliferative activity. The antiproliferative activity of putative inhibitors of the NPM-ALK kinase can however be overcome by addition of IL-3, which provides growth signals through an NPM-ALK independent mechanism. An analogous cell system using FLT3 kinase has also been described (see, E Weisberg et al. Cancer Cell; 1, 433-443 (2002)).
The inhibitory activity of the compounds of the invention may be determined as follows. In general, BaF3-NPM-ALK cells (15,000/microtitre plate well) are transferred to 96-well microtitre plates. Test compounds dissolved in dimethyl sulfoxide (DMSO) are added in a series of concentrations (dilution series) in such a manner that the final concentration of DMSO is not greater than 1% (v/v). After the addition, the plates are incubated for two days during which the control cultures without test compound are able to undergo two cell-division cycles. The growth of the BaF3-NPM-ALK cells is measured by means of YOPRO™ staining [T Idziorek et al. J. Immunol. Methods; 185: 249-258 (1995)]: 25 μl of lysis buffer comprising 20 mM sodium citrate, pH 4.0, 26.8 mM sodium chloride, 0.4% NP40, 20 mM EDTA and […] to each well. Cell lysis is completed within 60 min at room temperature and total amount of YOPRO™ bound to DNA is determined by measurement using the Cytofluor II 96-well reader (PerSeptive Biosystems) with the following settings: Excitation (nm) 485/20 and Emission (nm) 530/25.
IC50 values may be determined by a computer-aided system using the formula: IC50=[(ABStest−ABSstart)/(ABScontrol−ABSstart)]×100·(ABS=absorption)
In general, compounds of the invention have IC50 values from 1 nM to 10 μM. In some examples, compounds of the invention have IC50 values from 0.01 μM to 5 μM. In other examples, compounds of the invention have IC50 values from 0.01 μM to 1 μM, or more particularly from 1 nM to 1 μM.
Table 1 describes representative compounds of the invention, prepared following the procedures described above. IC50 values are as measured in an NPM-ALK BaF3 assay.

Structures are written as SMILES.

T1 sequence (Q9UM73 with tags, fused parts or gaps): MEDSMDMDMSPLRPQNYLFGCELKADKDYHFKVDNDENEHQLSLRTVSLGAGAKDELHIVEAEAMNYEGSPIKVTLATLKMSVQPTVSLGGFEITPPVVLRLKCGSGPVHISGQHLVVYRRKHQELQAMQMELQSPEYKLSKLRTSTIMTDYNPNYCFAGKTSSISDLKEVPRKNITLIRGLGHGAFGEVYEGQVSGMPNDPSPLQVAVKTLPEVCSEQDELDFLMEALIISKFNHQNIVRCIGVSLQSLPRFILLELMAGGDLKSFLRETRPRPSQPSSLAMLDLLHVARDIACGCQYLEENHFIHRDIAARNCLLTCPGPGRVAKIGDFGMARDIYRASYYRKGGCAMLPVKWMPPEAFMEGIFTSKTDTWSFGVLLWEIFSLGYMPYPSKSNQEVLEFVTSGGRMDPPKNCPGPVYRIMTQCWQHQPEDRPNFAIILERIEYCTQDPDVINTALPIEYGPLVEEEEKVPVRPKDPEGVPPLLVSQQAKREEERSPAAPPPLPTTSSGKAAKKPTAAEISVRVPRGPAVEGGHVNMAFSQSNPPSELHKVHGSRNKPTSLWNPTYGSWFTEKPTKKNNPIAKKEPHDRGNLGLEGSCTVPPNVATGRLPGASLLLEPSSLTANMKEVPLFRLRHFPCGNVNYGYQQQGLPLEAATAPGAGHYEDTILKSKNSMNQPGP

In turn, `Cc1cc(Nc2nc(Nc3ccccc3S(=O)(=O)C(C)C)n3nccc3n2)c(OC(C)C)cc1C1CCN(C)CC1` [Ex 1, N2-(2-isopropoxy-5-methyl-4-(1-methylpiperidin-4-yl)phenyl)-N4-(2-(isopropylsulfonyl)phenyl)pyrazolo[1,5-a][1,3,5]triazine-2,4-diamine] showed an IC50 of 115 nM.

For `COc1cc(C2CCN(C(=O)CN(C)C)CC2)c(C)cc1Nc1nc(Nc2ccccc2S(=O)(=O)C(C)C)n2nccc2n1` [Ex 2], it took 11 nM to reach half-maximal inhibition (IC50).

For `COc1cc(C2CCN(C)CC2)c(C)cc1Nc1nc(Nc2ccccc2S(=O)(=O)C(C)C)n2nccc2n1` [Ex 3], the 50% inhibitory concentration (IC50) was 19 nM.

In turn, `COc1cc(C2CCNCC2)c(C)cc1Nc1nc(Nc2ccccc2S(=O)(=O)C(C)C)n2nccc2n1` [Ex 4] returned an IC50 of 38 nM.

In turn, `Cc1cc(CN2CCC(c3cc(OC(C)C)c(Nc4nc(Nc5ccccc5S(=O)(=O)C(C)C)n5nccc5n4)cc3C)CC2)[nH]n1` [Ex 5] had a concentration for half-maximal inhibition (IC50) of 140 nM. This IC50 lies about 3.7-fold higher than the previous one.

For the compound `Cc1cc(Nc2nc(Nc3ccccc3S(=O)(=O)C(C)C)n3nccc3n2)c(OC(C)C)cc1C1CCN(Cc2cnn(C)c2)CC1` [Ex 6], half-maximal inhibition (IC50) required 80 nM.

With `COc1cc(C2CCN(CCS(C)(=O)=O)CC2)c(C)cc1Nc1nc(Nc2ccccc2S(=O)(=O)C(C)C)n2nccc2n1` [Ex 7], the concentration for half-maximal inhibition (IC50) came out at 50 nM.

The compound `COc1cc(C2CCN(CC3CC3)CC2)c(C)cc1Nc1nc(Nc2ccccc2S(=O)(=O)C(C)C)n2nccc2n1` [Ex 8] returned an IC50 of 43 nM.

Compound `COc1cc(C2CCOCC2)c(C)cc1Nc1nc(Nc2ccccc2S(=O)(=O)C(C)C)n2nccc2n1` [Ex 10] gave an IC50 of 138 nM.

Turning to `Cc1cc(C2CCNCC2)c(Cl)cc1Nc1nc(Nc2ccccc2S(=O)(=O)C(C)C)n2nccc2n1` [Ex 11], the IC50 was 1400 nM.

The compound `CNC(=O)CN1CCC(c2cc(OC)c(Nc3nc(Nc4ccccc4S(=O)(=O)C(C)C)n4nccc4n3)cc2C)CC1` [Ex 12] registered a 50% inhibitory concentration (IC50) of 28 nM.

As to `COc1cc(C2CCN(CCC(N)=O)CC2)c(C)cc1Nc1nc(Nc2ccccc2S(=O)(=O)C(C)C)n2nccc2n1` [Ex 13], the IC50 amounted to 15 nM. This IC50 is about 1.9-fold lower than that of the compound before.

With `COc1cc(C2CCN(C(=O)CN3CCCCC3)CC2)c(C)cc1Nc1nc(Nc2ccccc2S(=O)(=O)C(C)C)n2nccc2n1` [Ex 14], the IC50 turned out to be 26 nM.

Compound `COc1cc(C2CCN(C(=O)CN3CCCC3)CC2)c(C)cc1Nc1nc(Nc2ccccc2S(=O)(=O)C(C)C)n2nccc2n1` [Ex 15] registered an IC50 of 31 nM.

`CNCC(=O)N1CCC(c2cc(OC)c(Nc3nc(Nc4ccccc4S(=O)(=O)C(C)C)n4nccc4n3)cc2C)CC1` [Ex 17] came in with a half-maximal inhibitory concentration (IC50) of 22 nM. The IC50 values of the last two compounds are within 1.5-fold of each other.

Turning to `COc1cc(C2CCN(C(=O)C3(N)CC3)CC2)c(C)cc1Nc1nc(Nc2ccccc2S(=O)(=O)C(C)C)n2nccc2n1` [Ex 18], the half-inhibitory concentration (IC50) turned out to be 39 nM.

As to `CNCCC(=O)N1CCC(c2cc(OC)c(Nc3nc(Nc4ccccc4S(=O)(=O)C(C)C)n4nccc4n3)cc2C)CC1` [Ex 19], the half-maximal inhibitory concentration (IC50) came to 68 nM.

Compound `COc1cc(C2CCN(C(=O)CN3CCC3)CC2)c(C)cc1Nc1nc(Nc2ccccc2S(=O)(=O)C(C)C)n2nccc2n1` [Ex 20] came in with an IC50 of 26 nM.

Take `COc1cc(C2CCN(C(=O)CN3C[C@@H](O)[C@H](O)C3)CC2)c(C)cc1Nc1nc(Nc2ccccc2S(=O)(=O)C(C)C)n2nccc2n1` [Ex 21]: the IC50 was 286 nM. This IC50 lies about 11-fold higher than the previous one.

`CCNC1(C(=O)N2CCC(c3cc(OC)c(Nc4nc(Nc5ccccc5S(=O)(=O)C(C)C)n5nccc5n4)cc3C)CC2)CC1` [Ex 22]: half-maximal inhibition (IC50) required 23 nM.

The compound `COc1cc(C2CCN(CC(N)=O)CC2)c(C)cc1Nc1nc(Nc2ccccc2S(=O)(=O)C(C)C)n2nccc2n1` [Ex 23] came in with an IC50 of 16 nM. The IC50 values of the last two compounds are within 1.5-fold of each other.

For `CN[C@@H](C)C(=O)N1CCC(c2cc(OC)c(Nc3nc(Nc4ccccc4S(=O)(=O)C(C)C)n4nccc4n3)cc2C)CC1` [Ex 24], the IC50 turned out to be 21 nM.

`COc1cc(C2CCN(C(=O)CCN(C)C)CC2)c(C)cc1Nc1nc(Nc2ccccc2S(=O)(=O)C(C)C)n2nccc2n1` [Ex 25]: the IC50 amounted to 22 nM.

`CNC1(C(=O)N2CCC(c3cc(OC)c(Nc4nc(Nc5ccccc5S(=O)(=O)C(C)C)n5nccc5n4)cc3C)CC2)CC1` [Ex 26] returned a half-inhibitory concentration (IC50) of 25 nM.

By IC50 is commonly meant the concentration needed to halve the response being measured. Lower therefore signals inhibition by little substance.
